Measured values as given in EP3144007A1 (priority 2015, dated 2017).
“And” between values parts separate entries of the source, which are not always exact repeats. Identical values can stand only once. Where a SMILES comes first, the peptide text is derived from it. Bridges are numbered along the chain shown (N, C = ends).

Key:
[1] = test system: cerebellar granule neurons; type: cell-based
[2] = test system: cerebellar granule neurons
[3] = target: TrkB receptor on cultured cerebellar granule neurons

CSCC[C@@H]1NC(=O)CNC(=O)[C@H](CC(N)=O)NC(=O)[C@H](CC(N)=O)NC(=O)[C@H](CCSC)NC(=O)[C@H](Cc2c[nH]cn2)NC(=O)[C@H]([C@@H](C)O)NC(=O)[C@@H]2CCCN2C(=O)[C@H](CC(N)=O)NC(=O)[C@H](CC(=O)O)NC(=O)[C@H](CC(C)C)NC(=O)[C@H](CCC(N)=O)NC(=O)[C@H](CC(C)C)NC(=O)[C@@H](NC(=O)CN)CSSC[C@@H](C(=O)N[C@@H](CC(N)=O)C(=O)N[C@@H](CC(N)=O)C(=O)NCC(=O)O)NC(=O)[C@H](Cc2c[nH]cn2)NC(=O)[C@H]([C@@H](C)O)NC(=O)[C@@H]2CCCN2C(=O)[C@H](CC(N)=O)NC(=O)[C@H](CC(=O)O)NC(=O)[C@H](CC(C)C)NC(=O)[C@H](CCC(N)=O)NC(=O)[C@H](CC(C)C)NC1=O [d5 peptide] (H-GCLQLDNPTHMNNGMLQLDNPTHCNNG-OH; disulfide 2-24)
internalization of Hc-TeNT fragment (area occupied by Hc-TeNT) [1]: seems not to affect | percentage of Hc-TeNT in colocalization with TrkB [1]: about 44% | percentage of TrkB in co-localization with Hc-TeNT [1]: 51% | competition with the Hc-TeNT fragment for binding to cell membrane [2]: capable to compete | IC50 ([2]; 3 h): 108 µM | IC50 (concentration of unlabeled competitor necessary to displace 50% of specifically bound Hc-TeNT) ([2]; 3 h): 317.3 µg/mL

BDNF (from UniProt P23560 129-247) (ligand)
IC50 [3]: 4.2 nM and 0.06 µg/mL
